Measurements taken from PubChem BioAssay AID602463 (NMMLSC, 2012).

Tested on: DS-PAMPA, 20% ACN buffer, UV absorbance, 30 min
Test: passive membrane permeability of hits, cosolvent PAMPA, late-stage follow-up, ADME assay for GPR30 and estrogen receptor ligands, biophysical, double-sink PAMPA, 20% ACN buffer, pH 5.0/6.2/7.4 (AID 602463)
Details: stronger effect = higher value

permeability pH 7.4: 316 10^-6 cm/s | permeability pH 5.0 (measured here: PAMPA permeability at pH 5.0): 349 10^-6 cm/s | permeability pH 6.2 (measured here: PAMPA permeability at pH 6.2): 565 10^-6 cm/s
Structure (SMILES): CC(=O)c1ccc2c(c1)[C@@H]1C=CC[C@@H]1[C@H](c1cc3c(cc1Br)OCO3)N2
